From PMC9627624, “Molecular iodine-promoted oxidative cyclization for the synthesis of 1,3,4-thiadiazole-fused- [1,2,4]-thiadiazole incorporating 1,4-benzodioxine moiety as potent inhibitors of α-amylase and α-glucosidase: In vitro and in silico study” (Frontiers in Chemistry, 2022)

Compared with `O=[N+]([O-])c1ccc(/N=c2\snc3sc(C4COc5ccccc5O4)nn23)cc1` (stereo not shown) [Compound 1], `Clc1ccc(/N=c2\snc3sc(C4COc5ccccc5O4)nn23)cc1` (stereo not shown) [Compound 13] is lower in melting point: 210 to 211 °C for the first, 204 to 205 °C for the second.

Compared with `Oc1ccc(/N=c2\snc3sc(C4COc5ccccc5O4)nn23)c(O)c1` (stereo not shown) [Compound 2], `Oc1ccc(O)c(/N=c2\snc3sc(C4COc5ccccc5O4)nn23)c1` (stereo not shown) [Compound 6] is lower in melting point: 201 to 202 °C for the first, 199 to 200 °C for the second.

First: Oc1cc(O)cc(/N=c2\snc3sc(C4COc5ccccc5O4)nn23)c1 (stereo not shown) [Compound 3]
Second: Oc1ccc(/N=c2\snc3sc(C4COc5ccccc5O4)nn23)cc1O (stereo not shown) [Compound 5]
The melting point of the first is lower: 200 to 201 °C for the first, 201 to 202 °C for the second.

Compared with `Oc1cccc(/N=c2\snc3sc(C4COc5ccccc5O4)nn23)c1` (stereo not shown) [Compound 7], `Clc1cccc(/N=c2\snc3sc(C4COc5ccccc5O4)nn23)c1` (stereo not shown) [Compound 17] is higher in melting point: 191 to 192 °C for the first, 203 to 204 °C for the second.

First: Oc1cc(O)c(/N=c2\snc3sc(C4COc5ccccc5O4)nn23)c(O)c1 (stereo not shown) [Compound 8]
Second: Oc1cccc(/N=c2\snc3sc(C4COc5ccccc5O4)nn23)c1O (stereo not shown) [Compound 22]
The melting point of the first is higher: 214 to 215 °C for the first, 198 to 199 °C for the second.

First: CN(C)c1ccc(/N=c2\snc3sc(C4COc5ccccc5O4)nn23)cc1 (stereo not shown) [Compound 9]
Second: Cc1ccc(/N=c2\snc3sc(C4COc5ccccc5O4)nn23)cc1 (stereo not shown) [Compound 16]
The melting point of the first is higher: 206 to 207 °C for the first, 187 to 188 °C for the second.

First: O=[N+]([O-])c1ccccc1/N=c1\snc2sc(C3COc4ccccc4O3)nn12 (stereo not shown) [Compound 10]
Second: Cc1ccccc1/N=c1\snc2sc(C3COc4ccccc4O3)nn12 (stereo not shown) [Compound 15]
The melting point of the first is higher: 209 to 210 °C for the first, 188 to 189 °C for the second.

Compared with `COC(=O)c1ccc(/N=c2\snc3sc(C4COc5ccccc5O4)nn23)cc1` (stereo not shown) [Compound 14], `COc1ccc(/N=c2\snc3sc(C4COc5ccccc5O4)nn23)cc1O` (stereo not shown) [Compound 20] is lower in melting point: 216 to 217 °C for the first, 212 to 213 °C for the second.

Compared with `Cc1cccc(/N=c2\snc3sc(C4COc5ccccc5O4)nn23)c1` (stereo not shown) [Compound 19], `Fc1cccc(/N=c2\snc3sc(C4COc5ccccc5O4)nn23)c1` (stereo not shown) [Compound 24] is higher in melting point: 186 to 187 °C for the first, 194 to 195 °C for the second.

`Fc1ccccc1/N=c1\snc2sc(C3COc4ccccc4O3)nn12` (stereo not shown) [Compound 23] showed a melting point of 193 to 194 °C.
